The text below walks through data of publication PMC9321663, “The DevTox Germ Layer Reporter Platform: An Assay Adaptation of the Human Pluripotent Stem Cell Test” (Toxics, 2022).

Where only a bound is given, the exact number is not on record here.

For data set [1], the system named is BRA (mesoderm marker) in RUES2-GLR cells. The data set is described as follows: DevTox GLR-Endo assay: increase in percent BRA-positive cells (AEID 3096, Bra_up). Conditions: for HIT−CALL: tcpl plot AEID3096, COFF 0.774; for ga (winning model): tcpl plot AEID3096, gain parameter of winning curve fit (log concentration, µM axis); for ga (winning model) / tp (winning model): hit calls only; for MAX_MEAN: tcpl plot AEID3096, maximum mean response; for MAX_MED: tcpl plot AEID3096, maximum median response; for tp (winning model): tcpl plot AEID3096, top of winning curve fit; call rule not given here. It is filed as cell-based, human. Set-up: tp (winning model): unit not given here. How it is done: (§1) The total test chemical incubation period was 48 h.
(§2) (Supplementary Materials).

The next data set has as its system RUES2-GLR cells. The experiment in a line: DevTox GLR-Endo assay: decrease in total cell count, cytotoxicity (AEID 3098, CellCount_dn). Conditions: for Cell Count % Max Inhibition: Table S2, cell count relative to DMSO; for Emax: Homo sapiens, read-out: Cell Count % Max Inhibition. How it is done:
as §1
(§3) Assay plate controls included non-differentiated pluripotent cells maintained in complete Essential 8 Flex medium (baseline control), endoderm differentiated cells (differentiation control), endoderm differentiated cells treated with DMSO (0.2%) (solvent control), and TGF-ß receptor inhibitor SB431542 (1 µM)-treated cells (developmental toxicant-positive control) (Figure S3). All experiments were completed with a minimum of four biological replicates (n = 4).
as §2

For data set [2], the system named is SOX2 (ectoderm and pluripotency marker) in RUES2-GLR cells. The experiment in a line: DevTox GLR-Endo assay: increase in percent SOX2-positive cells (AEID 3095, Sox2_up). Particulars: for MAX_MEAN: tcpl plot AEID3095, maximum mean response; for MAX_MED: tcpl plot AEID3095, maximum median response.
Data set [3] concerns SOX17 (endoderm marker) in RUES2-GLR cells. The experiment in a line: DevTox GLR-Endo assay: increase in percent SOX17-positive cells (AEID 3093, Sox17_up). It is filed as cell-based, human. Particulars: for HIT−CALL: tcpl plot AEID3093, COFF 20.3; for Emax: Homo sapiens. How it is done: as §1, §2
Data set [4] has the same test system. The experiment in a line: DevTox GLR-Endo assay: decrease in percent SOX17-positive cells (AEID 3094, Sox17_dn). Particulars: for Hit Call: Table S2, SOX17-positive cells, cutoff 3*bmad; for DevTox % Max Inhibition: Table S2, percent SOX17-positive cells relative to DMSO; for DevTox ACC: Table S2, percent SOX17-positive cells, 48 h exposure; for HIT−CALL: tcpl plot AEID3094, COFF 20.3; for MAX_MEAN: tcpl plot AEID3094, maximum mean response; for MAX_MED: tcpl plot AEID3094, maximum median response; for Emax: Homo sapiens. How it is done:
as §1, §3, §2

[5] abbreviates: tcpl plot AEID3093, maximum mean response.
Setting [6] is: tcpl plot AEID3093, maximum median response.
Setting [7] is: tcpl plot AEID3093, maximum mean response, read-out: MAX_MEAN.
Where [8] appears, read: tcpl plot AEID3093, maximum median response, read-out: MAX_MED.
[9] abbreviates: read-out: DevTox % Max Inhibition.

As to `C=CC(N)=O` [Acrylamide], in data set [1], the “HIT−CALL” value is reported as 1, the “ga (winning model)” value was −6.98, the MAX_MEAN came out at 1.03 Percent Activity and the MAX_MED is 1.06 Percent Activity. The “tp (winning model)” value in data set [1] was determined as 0.908. In addition, the “Cell Count % Max Inhibition” value with RUES2-GLR cells worked out at 16.9643%. In data set [2], this compound showed an MAX_MEAN of 0.47 Percent Activity and an MAX_MED of 0.417 Percent Activity. Further, in data set [3], the “HIT−CALL” value is given as 0. The compound also gave an MAX_MEAN in data set [3] (setting [5]) of 6.64 Percent Activity. The MAX_MED in data set [3] (setting [6]) was found to be 7.31 Percent Activity. In data set [4], the “Hit Call” value is “Negative”, the “DevTox % Max Inhibition” value is 9.423%, the “DevTox ACC” value is over 200 µM and the “HIT−CALL” value is 0. Also, in data set [4], the MAX_MEAN is 8.79 Percent Activity and the MAX_MED was 9.42 Percent Activity.

Consider `COC(=O)c1ccccc1C(=O)OC` [Dimethyl Phthalate], for which the “HIT−CALL” value in data set [1], in data set [2], in data set [3] and in data set [4] was 0 throughout. Further, the MAX_MEAN was 0.821 Percent Activity in data set [1] and 1.15 Percent Activity in data set [2]. Also, the MAX_MED in data set [1] is listed as 0.835 Percent Activity; in data set [2] it was 0.556 Percent Activity. Besides, the Emax came out at 11.9% in the data set on RUES2-GLR cells; 6.35% in data set [3] (setting [7]); 7.43% in data set [3] (setting [8]); 6.7% in data set [4] (setting [9]); 7.41% in data set [4] (read-out: MAX_MEAN); 6.7% in data set [4] (read-out: MAX_MED). Also, the “Cell Count ACC” value with RUES2-GLR cells (Table S2, 48 h exposure) is over 200 µM. The “Hit Call” value in data set [4] is “Negative”. The “DevTox ACC” value in data set [4] is over 200 µM.

On to D-Camphor, for which, in data set [1], the “HIT−CALL” value amounted to 1, the “ga (winning model)” value is on record as −7, the MAX_MEAN was 0.906 Percent Activity and the MAX_MED is listed as 0.891 Percent Activity. Further, in data set [1], the “tp (winning model)” value is 0.81. In the data set with RUES2-GLR cells, the “Cell Count % Max Inhibition” value was 7.562%. Besides, in data set [2], the “HIT−CALL” value is 0, the MAX_MEAN is listed as 0.902 Percent Activity and the MAX_MED amounted to 0.451 Percent Activity. In addition, the “HIT−CALL” value in data set [3] is given as 0. The same compound showed an MAX_MEAN in data set [3] (setting [5]) of 7.36 Percent Activity. Besides, the MAX_MED in data set [3] (setting [6]) is on record as 11.6 Percent Activity. Further, in data set [4], the “Hit Call” value is “Negative”, the “DevTox % Max Inhibition” value is on record as 9.33%, the “DevTox ACC” value is over 200 µM and the “HIT−CALL” value is reported as 0. For the same compound, in data set [4], the MAX_MEAN worked out at 8.81 Percent Activity and the MAX_MED turned out to be 9.33 Percent Activity.

As to `CC(=O)Nc1ccc(O)cc1` [Acetaminophen], the “HIT−CALL” value in data set [1], in data set [3] and in data set [4] was 0 each time. For the same compound, the MAX_MEAN in data set [1] was 0.829 Percent Activity; in data set [2], 0.992 Percent Activity. Also, the figures for the MAX_MED in data set [1] and in data set [2] were 0.865 Percent Activity and 0.603 Percent Activity, respectively. Further, the Emax stood at 13.1% with RUES2-GLR cells; 11.3% in data set [3] (setting [7]); 10.3% in data set [3] (setting [8]); 10.5% in data set [4] (setting [9]); 11.3% in data set [4] (read-out: MAX_MEAN); 10.5% in data set [4] (read-out: MAX_MED). The “Cell Count ACC” value with RUES2-GLR cells (human, 48 h) is over 200 µM. Besides, the “effect on SOX17-positive cells (in words)” value in data set [4] (48 h exposure during directed endoderm differentiation) is on record as “no observed effect”. For the same compound, the “Hit Call” value in data set [4] is on record as “Negative”. Besides, the “DevTox ACC” value in data set [4] is on record as over 200 µM.
